From the RepoRT retention time repository

Experiment: HILIC, Waters ACQUITY UPLC BEH Amide, 100 × 2.1 mm, 1.7 µm; A: water + 0.125% formic acid + 10 mM ammonium formate; B: 5% water + 95% acetonitrile + 0.125% formic acid + 10 mM ammonium formate; gradient (min/%B) 0/100 2/100 7.7/70 9.5/40 10.25/30 12.75/100 17/100
Conditions: stereoisomer not certain

Row | SMILES | LC retention time
1 | CC(C)C12OC1C1OC13C1(C)CCC4=C(COC4=O)C1CC1OC13C2O (stereo not drawn) [Triptolide] | 1.02 min
2 | O=C(O)CCCCCO [6-Hydroxycaproic acid] | 1.34 min
3 | CCCCc1nc(Cl)c(CO)n1Cc1ccc(-c2ccccc2-c2nn[nH]n2)cc1 [Losartan] | 1.27 min
4 | Nc1ccnc(=O)[nH]1 [Cytosine] | 5.9 min
5 | OCC1OC(n2cnc3c(NC4CCCC4)nc(Cl)nc32)C(O)C1O (stereo not drawn) [2-Chloro-N6-cyclopentyladenosine] | 1.47 min
6 | Cc1cc2c(s1)Nc1ccccc1N=C2N1CCN(C)CC1 [Olanzapine] | 4.56 min
7 | CCCCCC=CCC=CCC=CCC=CCCCC(=O)NCCc1ccc(O)c(O)c1 [Arachidonyl dopamine] | 1.14 min
8 | O=C1Nc2ccc(Cl)cc2C(c2ccccc2)=NC1O (stereo not drawn) [Oxazepam] | 1.37 min
9 | CN(C)CCC(c1ccc(Br)cc1)c1ccccn1 (stereo not drawn) [Dexbrompheniramine] | 2.56 min
10 | CN(C)CCCN1c2ccccc2CCc2ccc(Cl)cc21 [Clomipramine] | 2.31 min
11 | CSc1nc2cc(Oc3cccc(Cl)c3Cl)c(Cl)cc2[nH]1 [Triclabendazole] | 1.01 min
12 | CCCCC1=NC2(CCCC2)C(=O)N1Cc1ccc(-c2ccccc2-c2nn[nH]n2)cc1 [Irbesartan] | 1.16 min
13 | Nc1ncnc2c1ncn2C1OC(CO)CC1O (stereo not drawn) [Cordycepin] | 3.54 min
14 | CN1C(=O)CN=C(c2ccccc2F)c2cc([N+](=O)[O-])ccc21 [Flunitrazepam] | 1.05 min
15 | Cc1occc(=O)c1O [Maltol] | 1.32 min
16 | O=c1[nH]c(=O)c2nccnc2[nH]1 [Lumazine] | 2.49 min
17 | Nc1ccn(C2CSC(CO)O2)c(=O)n1 (stereo not drawn) [Lamivudine] | 3.4 min
18 | CN(C)CCc1c[nH]c2ccc(Cn3cncn3)cc12 [Rizatriptan] | 5.11 min
19 | Br.CN1CCC2(c3cccc(O)c3)Cc3nc4ccccc4cc3CC2C1.O (stereo not drawn) | 5.11 min
20 | NC(=O)CS(=O)C(c1ccccc1)c1ccccc1 (stereo not drawn) [Modafinil] | 1.27 min

Row | SMILES | LC retention time
21 | c1ccc(-c2ccc(C(c3ccccc3)n3ccnc3)cc2)cc1 (stereo not drawn) [Bifonazole] | 1.19 min
22 | CC12CCC3C(CC=C4CC(O)CCC43C)C1CCC2=O (stereo not drawn) [Dehydroepiandrosterone] | 1.03 min
23 | O=CCc1ccccc1 [Phenylacetaldehyde] | 5.4 min
24 | COc1ccc(OC)c(C(O)C(C)N)c1 (stereo not drawn) [Methoxamine] | 4.75 min
25 | CC12Cc3cn[nH]c3CC1CCC1C2CCC2(C)C1CCC2(C)O (stereo not drawn) [Stanozolol] | 1.19 min
26 | O=C1N(c2ccccc2)c2ccccc2C1(Cc1ccncc1)Cc1ccncc1 [Linopirdine] | 1.17 min
27 | COC(=O)N1CCN(C(=O)Cc2ccc(Cl)c(Cl)c2)C(CN2CCCC2)C1 (stereo not drawn) | 2.56 min
28 | Cc1ccnc2c1NC(=O)c1cccnc1N2C1CC1 [Viramune] | 1.16 min
29 | NCC(=O)c1ccccc1 [2-Aminoacetophenone] | 1.08 min
30 | CS(=O)(=O)Nc1ccc(Cc2noc(-c3ccc4[nH]cc(CCN)c4c3)n2)cc1 [L-694,247] | 5.25 min
31 | COC(=O)C1C(OC(=O)c2ccccc2)CC2CCC1N2C (stereo not drawn) [Cocaine] | 2.2 min
32 | OC1CCCCC1N1CCC(c2ccccc2)CC1 (stereo not drawn) [Vesamicol] | 2.65 min
33 | CCCCCCCC=O [Octanal] | 6.98 min
34 | CCOC(=O)C1(c2ccccc2)CCN(CCC(C#N)(c2ccccc2)c2ccccc2)CC1 [Diphenoxylate] | 1.41 min
35 | COc1cc2c(cc1OC)C13CCN4CC5=CCOC6CC(=O)N2C1C6C5CC43 (stereo not drawn) [Brucine] | 4.57 min
36 | O=C1CN2Cc3c(ccc(Cl)c3Cl)N=C2N1 [Anagrelide] | 1.82 min
37 | CCCCCC(O)C=CC=O (stereo not drawn) [4-Hydroxynonenal] | 1.07 min
38 | Nc1ccn(C2OC(CO)C(O)C2O)c(=S)n1 (stereo not drawn) [2-Thiocytidine] | 5.33 min
39 | CN(C)c1ccc(N=Nc2ccccc2)cc1 [p-(Dimethylamino)azobenzene [methyl yellow]] | 0.93 min

Other lines, results leading:

Row | LC retention time | SMILES
40 | 1.51 min | O=C(OC1C(Oc2ccccc2COC(=O)C2(O)C=CCCC2=O)OC(CO)C(O)C1O)c1ccccc1 (stereo not drawn) [Tremulacin]
41 | 8.99 min | OCC(O)C(O)C(OC1OC(CO)C(O)C(O)C1O)C(O)CO (stereo not drawn) [Lactitol]
42 | 9.05 min | C=C(OP(=O)(O)O)C(=O)O [Phosphoenolpyruvic acid]
43 | 6.38 min | Cn1cc(CC(N)C(=O)O)c2ccccc21 (stereo not drawn) [1-Methyltryptophan]
44 | 3.17 min | CC(C(O)c1ccc(O)cc1)N1CCC(Cc2ccccc2)CC1 (stereo not drawn) [Ifenprodil]
45 | 4.12 min | CN1C2CCCC1CC(NC(=O)c1nn(C)c3ccccc13)C2 (stereo not drawn) [Granisetron]
46 | 5.09 min | COC1C(CO)OC(n2ccc(N)nc2=O)C1O (stereo not drawn) [3'-O-Methylcytidine]
47 | 1.08 min | O=C(O)Cc1ccccc1Nc1c(Cl)cccc1Cl [Diclofenac]
48 | 8.14 min | O=C(O)C1CC(O)CN1 (stereo not drawn) [Hydroxyproline]
49 | 2.85 min | O=C(O)CCCCC1SCC2NC(=O)NC21 (stereo not drawn) [Biotin]
50 | 9.86 min | O=P(O)(O)OCC1OC(O)C(O)C(O)C1O (stereo not drawn) [Glucose-6-phosphate]
51 | 9.88 min | NC(CCCC(N)C(=O)O)C(=O)O (stereo not drawn) [2,6-Diaminopimelic acid]
52 | 8.28 min | CC(OC1C(N)C(O)OC(CO)C1O)C(=O)O (stereo not drawn) [Muramic acid]
53 | 4.58 min | O=C(O)c1ccnc2ccccc12 [4-Quinolinecarboxylic acid]
54 | 6.01 min | CN(CCO)CC(O)Cn1cnc2c1c(=O)n(C)c(=O)n2C (stereo not drawn) [Xanthinol]
55 | 5.42 min | CC(=O)C1(O)Cc2c(O)c3c(c(O)c2C(OC2CC(N)C(O)C(C)O2)C1)C(=O)c1ccccc1C3=O (stereo not drawn) [Idarubicin]
56 | 4.47 min | COc1cc(-c2[o+]c3cc(O)cc(O)c3cc2OC2OC(CO)C(O)C(O)C2O)cc(O)c1O (stereo not drawn) [Petunidin-3-glucoside]
57 | 7.37 min | CSCCC(N)C(=O)O (stereo not drawn) [Methionine]
58 | 1.62 min | Cc1cn(C2C=CC(CO)O2)c(=O)[nH]c1=O (stereo not drawn) [Stavudine]
59 | 4.88 min | CC(=O)CC(C)(C)O [4-Hydroxy-4-methyl-2-pentanone]
60 | 1.55 min | Cc1c(O)cccc1C(=O)NC(CSc1ccccc1)C(O)CN1CC2CCCCC2CC1C(=O)NC(C)(C)C (stereo not drawn) [Nelfinavir]
61 | 7.83 min | C[N+](C)(C)CC(O)CC(=O)[O-] (stereo not drawn) [Carnitine]
62 | 1.01 min | CCOc1cc(CC(=O)NC(CC(C)C)c2ccccc2N2CCCCC2)ccc1C(=O)O (stereo not drawn) [Repaglinide]
63 | 6.44 min | CCC(C)C(NC)C(=O)O (stereo not drawn) [N-Methylisoleucine]
64 | 1.41 min | O=C(O)c1c[nH]c2ccccc12 [Indole-3-carboxylic acid]

Row | LC retention time | SMILES
65 | 1.07 min | C=CCC1C=C(C)CC(C)CC(OC)C2OC(O)(C(=O)C(=O)N3CCCCC3C(=O)OC(C(C)=CC3CCC(O)C(OC)C3)C(C)C(O)CC1=O)C(C)CC2OC (stereo not drawn) [Tacrolimus]
66 | 2.16 min | O=C(O)c1cccnc1C(=O)O [Quinolinic acid]
67 | 1.18 min | COC1C=COC2(C)Oc3c(C)c(O)c4c(O)c(c5c(nc6cc(C)ccn65)c4c3C2=O)NC(=O)C(C)=CC=CC(C)C(O)C(C)C(O)C(C)C(OC(C)=O)C1C (stereo not drawn) [Rifaximin]
68 | 5.04 min | COc1cc(C(=O)NC2CCCNC2)cc(OC)c1OC (stereo not drawn) [Troxipide]
69 | 0.99 min | CCC(C)C(=O)OC1CCC=C2C=CC(C)C(CCC3CC(O)CC(=O)O3)C21 (stereo not drawn) [Mevastatin]
70 | 9.48 min | Nc1ccn(C2OC(COP(=O)(O)O)C(O)C2O)c(=O)n1 (stereo not drawn) [Cytidine-5'-monophosphate]
71 | 1.2 min | NC(=O)OCC(COC(N)=O)c1ccccc1 [Felbamate]
72 | 9.6 min | NC(=O)CCC(NC(=O)C(N)CCC(=O)O)C(=O)O (stereo not drawn) [Glu-Gln]
73 | 7.62 min | Nc1ncnc2c1ncn2C1OC2COP(=O)(O)OC2C1O (stereo not drawn) [Adenosine 3',5'-cyclic monophosphate]
74 | 7.35 min | CN[C@@H](CCCCN)C(=O)O [N.alpha.-Methyl-L-lysine]
75 | 5.18 min | CNC(=C[N+](=O)[O-])NCCSCc1ccc(CN(C)C)o1 [Ranitidine]
76 | 1.32 min | COc1cc2c(=O)c(-c3ccc(O)cc3)coc2cc1O [Glycitein]
77 | 5.6 min | NC(=O)NCCC(=O)O [3-Ureidopropionic acid]
78 | 2.61 min | CC(=O)NC(Cc1ccccc1)C(=O)O (stereo not drawn) [N-Acetylphenylalanine]
79 | 9.44 min | CC(O)C(NC(=O)C(N)CCC(=O)O)C(=O)O (stereo not drawn) [Glu-Thr]
80 | 8.35 min | CC(=O)NCCC(=O)NC(Cc1cnc[nH]1)C(=O)O [N-Acetyl-L-carnosine]
81 | 5.09 min | CCCCCC(=O)OC(CC(=O)[O-])C[N+](C)(C)C [Hexanoyl-L-carnitine]
82 | 8.44 min | NC1C(O)OC(CO)C(O)C1O (stereo not drawn) [Galactosamine]
83 | 7.19 min | OCC1OC(OCC2OC(O)C(O)C(O)C2O)C(O)C(O)C1O (stereo not drawn) [Isomaltose]
84 | 1.45 min | O=C(O)Cc1cccc(O)c1 [3-Hydroxyphenylacetic acid]
85 | 9.16 min | Nc1ccn(C2CC(O)C(COP(=O)(O)O)O2)c(=O)n1 (stereo not drawn) [2-Deoxycytidine-5-monophosphoric acid]
86 | 1.15 min | CC12CCC(=O)C=C1CCC1C2CCC2(C)C1CCC2(O)C(=O)CO (stereo not drawn) [Cortodoxone]
87 | 3.69 min | O=C(O)C=Cc1cnc[nH]1 [Urocanic acid]
88 | 1.46 min | COCC1OC(n2cc(C)c(=O)[nH]c2=O)CC1O (stereo not drawn) [5'-O-Methylthymidine]
